From patent publication US10214495B2, “Anti-malarial agents” (MMV MEDICINES FOR MALARIA VENTURE, priority 2015, dated 2019) come the findings set out here.

One series relates to P. falciparum NF54. Briefly: In vitro P. falciparum growth inhibition, sensitive NF54 strain. The series is classed as cell-based. The note with it: Plasmodium falciparum, read-out: P. fal. NF54 IC50. Here is the method: (§1) The ability of aminopyrazine derivatives according to the invention to kill P. falciparum parasites and/or to inhibit its proliferation is assayed through their ability to inhibit Plasmodium falciparum growth. Compounds were screened against multidrug resistant (K1) and sensitive (NF54) strains of P. falciparum in vitro as described by Vennerstrom et al. 2004, Nature, 430, 900-904.

For a further series, the system named is P. falciparum K1. In words: In vitro P. falciparum growth inhibition, multidrug resistant K1 strain. The series is classed as cell-based. To be noted: Plasmodium falciparum, read-out: P. fal K1 IC50. Here is the method:
as §1

The target of a further series is hPI4KB (Homo sapiens, UniProt Q9UBF8). Briefly: PI4KB lipid kinase ADP-Glo assay. To be noted: ATP 10 μM, PI substrate 50 μM. The series is classed as biochemical. Here is the method: The compounds of the invention were tested on their ability to inhibit the human PI4K kinase. The non-radiometric ADP-Glo™ Assay (Promega, Madison, Wis., USA) was used for measuring the activity of the PI4KB lipid kinase. All kinase assays were performed in 96-well half-area microtiter plates from Greiner Bio-One (Frickenhausen, Germany) in a 25 μl reaction volume. The reaction cocktail was pipetted in 3 steps in the following order:
10 μl of ATP solution (in assay buffer, see below)
5 μl of test sample in 10% DMSO
10 μl of enzyme/substrate mixture
PI4KB assay contained 50 mM HEPES-NaOH, pH 7.5, 1 mM EGTA, 100 mM NaCl, 0.03% CHAPS, 2 mM DTT, ATP, 10 μM, PI4KB kinase, 20 ng/25 μL, PI substrate 50 μM. and3 mM MnCl2.
The reaction cocktails were incubated at 30° C. for 40 minutes. The reaction was stopped with 25 μl ADP-Glo reagent per well. Plates were incubated for 40 minutes at room temperature, followed by addition of 50 μl kinase detection reagent per well and incubation for further 60 minutes at room temperature. Signal was measured with a microplate multilable reader (Victor2, Perkin Elmer, Boston, Mass., USA), in luminescence mode.
All assays were performed with a BeckmanCoulter Biomek 2000/SL robotic system. The median value of the counts (n=8) of each assay plate was defined as “low control”. This value reflects unspecific binding of radioactivity to the plate in the absence of a protein kinase but in the presence of the substrate. […]
As part of the data evaluation the low control value from a particular plate was subtracted from the high control value as well as from all 80 “compound values” of the corresponding plate. The residual activity (in %) for each well of a particular plate was calculated by using the following formula (i): Res. Activity (%)=100×[(cpm of compound−low control)/(high control−low control)] […]
The residual activities for each concentration and the compound IC50 values were calculated using Quattro Workflow V3.1.0 (Quattro Research GmbH, Munich, Germany; www.quattro-research.com). […]

A short description of series [1]: Kinetic solubility by HPLC. The series is classed as physicochemical. The note with it: kinetic from dmso stock, room temperature. Here is the method: Dilutions were prepared to a theoretical concentration of 200 μM (n=2) in phosphate buffered saline (PBS) pH 6.5 (in 2% DMSO), in 0.01 M HCl pH 2 (in 2% DMSO) and in biologically relevant gastrointestinal media, fasted state simulated intestinal fluid, FaSSIF (in 2% DMSO). Calibration curves (11-220 μM) were prepared in DMSO. All dilutions were equilibrated at room temperature and mixed for 2 hours on an orbital shaker. The concentration of the test compounds was determined by HPLC using a Kinetex C18 column (2.1 mm×50 mm, 2.6 μm) at a column temperature of 35° C. An injection volume of 5 μL was used with a mobile phase flow rate of 0.6 mL/min. The mobile phase gradient method was as follows in Table 1: […]
Mobile phase A: 0.1% formic acid in 5% acetonitrile/water (v/v) (pH 3.1)
Mobile phase B: 0.1% formic acid in acetonitrile (pH 3.1)
Compound concentration (x) in the PBS/FASSIF/HC1 samples was calculated from the peak area (y) in the UV chromatogram by extrapolation from a three point calibration curve using the relationship: y=ax+b, where a is the slope and b is the intercept. Solubility was reported in the range <5-220 μM.

The nature of series [2]: Pharmacokinetics in rats (iv and oral). The series is classed as in vivo. To be noted: rat; for Apparent T1/2 / Plasma Cl / Vd: 5.0 mg/kg iv. Here is the method: Compounds of the invention were tested for their pharmacokinetics in rats according to the protocol below. Two different formulations were used to dose the compound of the invention as described in Table 3 below
Compound (1) was prepared for administration immediately prior to the experiment. The dose was prepared according to the average weight of the animals and an assumed volume of 350 μL of vehicle (IV) or 1000 μL of vehicle (oral). Volumes were adjusted io for each animal's individual weight to dose the compound at 5 mg/kg for the IV group (n=3 rats) and 20 mg/kg to the oral group (n=3). Water was supplied ad libitum, but animals were starved for 12 hours prior to dosing. Food was reinstated 5 hours post-dose.
The orally-treated animals were dosed by gavage with the drug introduced as a bolus. The IV-treated animals were anaesthetized and the drug was administered by infusion over a period of 2 minutes. Doses were staggered to allow for accurately timed sampling. Blood was collected at predetermined time-points to evaluate the kinetic profile over 24-48 hours. Blood sampling schedule, measured in hours post-dose, for the two groups of rats after the administration of Compound (1) are presented in Table 4 below:
Whole blood was collected via the tail vein into heparinised microcentrifugation tubes and stored on ice. Within 60 minutes of collection, samples were transferred to a freezer and stored at −80 ° C. until analysis was carried out via LC/MS/MS.
The extraction process was carried out on ice. To extract the drug for analysis, 30 μL of whole blood from each sample as well as from a series of standards and quality controls was transferred to a 96-well plate. A volume of 90 μL of cold methanol containing a suitable internal standard (approx. 60 ng/mL was added to each well and the plate was sealed and vortexed vigorously for 60 seconds to precipitate the proteins and release the compounds into the solvent). These were then centrifuged at 10000 G for 10 minutes to pellet the proteins and cellular debris, and the supernatant was transferred to a duplicate 96-well plate. The plate was transferred to the LC/MS/MS and held at 4° C. until all samples were injected onto the column.
LC/MS/MS analysis was carried out with 5 μL of each sample, using a method which was developed for simultaneous detection of compound (1) and the internal standard using a Phenomenex Hydro-RP column at 20° C. The mobile phase utilized acetonitrile containing 0.1% formic acid (v/v) as the organic component, and 0.1% (v/v) formic acid in water as the aqueous component. The mobile phase ran as a gradient at 400 μL/min, with the organic component increasing from 5% to 95% over 4 minutes before re-equilibration. The assay was calibrated over the range 2-6250 ng/mL (0.0056 μM-17.44 μM).

[3] abbreviates: FaSSIF pH 6.5, 2% DMSO, read-out: Kinetic Solubility Fassif pH6.5.
Where [4] appears, read: phosphate buffered saline, aqueous buffer, PBS pH 6.5, 2% DMSO, read-out: Kinetic Solubility pH 6.5.
The mark [5] stands for this setting: 20.0 mg/kg po vs 5.0 mg/kg iv (Reference 1 column prints iv).

Molecules are shown by their SMILES. Values after ≈ are worked out from the molar mass of the structure shown. Where two headings read alike, the source gives them in different places. Bounds are passed on as bounds.

Sequence of hPI4KB (Q9UBF8 whole entry): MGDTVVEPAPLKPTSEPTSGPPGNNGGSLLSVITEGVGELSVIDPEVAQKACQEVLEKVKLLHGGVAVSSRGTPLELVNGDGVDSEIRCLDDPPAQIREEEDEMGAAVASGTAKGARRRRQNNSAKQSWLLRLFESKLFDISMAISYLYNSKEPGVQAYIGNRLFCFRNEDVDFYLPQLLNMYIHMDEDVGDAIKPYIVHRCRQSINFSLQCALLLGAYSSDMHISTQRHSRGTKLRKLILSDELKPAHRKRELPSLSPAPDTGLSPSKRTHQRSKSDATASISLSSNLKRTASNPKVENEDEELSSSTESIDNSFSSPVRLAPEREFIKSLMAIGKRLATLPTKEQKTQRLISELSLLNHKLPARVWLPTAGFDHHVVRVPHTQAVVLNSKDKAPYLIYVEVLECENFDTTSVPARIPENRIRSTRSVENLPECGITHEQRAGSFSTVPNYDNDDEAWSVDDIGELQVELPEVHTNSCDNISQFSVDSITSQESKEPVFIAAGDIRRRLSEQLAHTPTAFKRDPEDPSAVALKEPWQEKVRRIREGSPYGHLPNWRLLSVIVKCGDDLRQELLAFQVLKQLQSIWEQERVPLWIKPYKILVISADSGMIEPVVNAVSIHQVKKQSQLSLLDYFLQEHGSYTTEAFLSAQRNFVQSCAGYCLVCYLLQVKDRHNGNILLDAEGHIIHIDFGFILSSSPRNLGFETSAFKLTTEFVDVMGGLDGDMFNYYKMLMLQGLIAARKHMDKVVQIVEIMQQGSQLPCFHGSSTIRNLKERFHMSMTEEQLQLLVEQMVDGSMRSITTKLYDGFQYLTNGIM

Take `Nc1ncc(-c2ccc(C(=O)O)cc2)nc1-c1ccc(C(F)(F)F)cc1` [Compound (1), 4-(5-amino-6-(4-(trifluoromethyl)phenyl)pyrazin-2-yl)benzoic acid]: the IC50 in the series on P. falciparum NF54 was 33 nM; in the series with P. falciparum K1, 32 nM; at hPI4KB it was 7700 nM. Further, the values for the solubility (kinetic) at 2 h in series [1] (setting [3]) and in series [1] (setting [4]) were 178 µM (≈ 64 µg/mL) and 180 µM (≈ 64.7 µg/mL), respectively. Besides, the “Apparent T1/2” value in series [2] came to 4.9 h. Besides, the “Plasma Cl” value in series [2] came out at 10.1 mL/min/kg. The Vd in series [2] is reported as 4.3 L/kg. The “Oral Bioavailability” value in series [2] ([…] po vs 5.0 mg/kg iv) worked out at 94%.

In the case of `NC(=O)c1ccc(-c2cnc(N)c(-c3ccc(C(F)(F)F)cc3)n2)cc1` [Reference 1, reference compound], the IC50 worked out at 13 nM in the series with P. falciparum NF54, 14 nM with P. falciparum K1 and 5000 nM against hPI4KB. Moreover, the figures for the solubility (kinetic) at 2 h in series [1] (setting [3]) and in series [1] (setting [4]) were 115 µM (≈ 41.2 µg/mL) and less than 5 µM, respectively. The “Apparent T1/2” value in series [2] was determined as 1.0 h. Besides, in series [2], the “Plasma Cl” value amounted to 39 mL/min/kg. Also, the Vd in series [2] was 3.5 L/kg. Moreover, the “Oral Bioavailability” value in series [2] (setting [5]) is listed as 25%.

`Nc1ncc(-c2ccc(C(=O)O)cc2)nc1-c1ccc(C(F)(F)F)nc1` [Compound (2), 4-(5-amino-6-(6-(trifluoromethyl)pyridin-3-yl)pyrazin-2-yl)benzoic acid]: the results for the IC50 in the series on P. falciparum NF54, in the series on P. falciparum K1 and on hPI4KB were 26 nM, 24 nM and 23000 nM, respectively. For the same compound, the kinetic solubility at 2 h worked out at 199 µM (≈ 71.7 µg/mL) in series [1] (setting [3]) and 187 µM (≈ 67.4 µg/mL) in series [1] (setting [4]). The “Apparent T1/2” value in series [2] was 4.4 h. In addition, the “Plasma Cl” value in series [2] was found to be 16.7 mL/min/kg. Moreover, in series [2], the Vd is listed as 6.4 L/kg. Besides, the “Oral Bioavailability” value in series [2] (setting [5]) worked out at 38%.

For orientation: IC50 means the concentration at which inhibition is half-maximal. One may read the kinetic solubility as the concentration staying in solution when a stock, usually in DMSO, is diluted into the medium.
